Results as given in patent publication US8658636B2, “TRPV4 antagonists” (GlaxoSmithKline, LLC, priority 2010, dated 2014).

Each molecule was assayed against T1, human TRPV4 (Homo sapiens, UniProt Q9HBA0) (assay: Ligand-gated assay (FLIPR calcium, Fluo4)). Conditions: HEK-293-MSR-II cells transduced with BacMam human TRPV4; inhibition of agonist (EC80)-induced activation; read-out: Human TRPV4 FLIPR pIC50 (converted).
T1 construct: expressed in transfected cells; host or cells: HEK-293-MSR-II cells transduced with 1% BacMam virus
T1 sequence (Q9HBA0 whole entry): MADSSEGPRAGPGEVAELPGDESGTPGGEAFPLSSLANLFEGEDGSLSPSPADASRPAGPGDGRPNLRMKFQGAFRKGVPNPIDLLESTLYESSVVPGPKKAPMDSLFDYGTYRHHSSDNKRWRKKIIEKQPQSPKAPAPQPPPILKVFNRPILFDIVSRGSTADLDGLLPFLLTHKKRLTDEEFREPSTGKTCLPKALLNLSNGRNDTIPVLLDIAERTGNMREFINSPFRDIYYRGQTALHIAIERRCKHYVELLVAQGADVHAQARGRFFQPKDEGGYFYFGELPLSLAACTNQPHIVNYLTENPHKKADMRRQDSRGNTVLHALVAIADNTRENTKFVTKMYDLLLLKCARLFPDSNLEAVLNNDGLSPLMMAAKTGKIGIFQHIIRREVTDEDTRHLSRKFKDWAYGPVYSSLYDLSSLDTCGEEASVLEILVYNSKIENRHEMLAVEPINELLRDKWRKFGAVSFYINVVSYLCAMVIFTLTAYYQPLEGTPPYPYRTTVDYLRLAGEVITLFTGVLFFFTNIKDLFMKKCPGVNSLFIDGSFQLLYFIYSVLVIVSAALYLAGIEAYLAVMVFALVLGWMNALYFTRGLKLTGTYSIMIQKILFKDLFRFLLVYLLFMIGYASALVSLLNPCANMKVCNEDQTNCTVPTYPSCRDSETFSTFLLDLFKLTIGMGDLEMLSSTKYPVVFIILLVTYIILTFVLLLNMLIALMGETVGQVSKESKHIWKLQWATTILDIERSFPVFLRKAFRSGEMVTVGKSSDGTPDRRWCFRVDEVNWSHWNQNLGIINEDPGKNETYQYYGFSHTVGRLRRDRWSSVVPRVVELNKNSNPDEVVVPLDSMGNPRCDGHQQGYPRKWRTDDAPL
Format: cell-based
Description: TRP channel activation/opening results in an influx of divalent and monovalent cations including calcium. The resulting changes in intracellular calcium are monitored using a calcium selective fluorescent dye Fluo4 (MDS Analytical Technologies). Dye loaded cells were initially exposed to test compound to verify a lack of agonist activity. Cells were subsequently activated by addition of an agonist and inhibition of the agonist-induced activation was recorded. Human embryonic kidney 293 cells stably expressing the macrophage scavenger receptor class II (HEK-293-MSR-II) and transduced with 1% BacMam (J. P. Condreay, S. M. Witherspoon, W. C. Clay and T. A. Kost, Proc Natl Acad Sci 96 (1999), pp. 127-132) virus expressing the human TRPV4 gene were plated at 15000 cells/well in a volume of 50 uL in a 384 well poly-D lysine coated plate. Cells were incubated for 24 hours at 37 degrees and 5% CO2. Media was then aspirated using a Tecan Plate-washer and replaced with 20 uL of dye loading buffer: HBSS, 500 uM Brilliant Black (MDS Analytical Technologies), 2 uM Fluo-4. Dye loaded plates were then incubated in the dark at room temperature for 1-1.5 hours. 10 uL of test compound diluted in HBSS+0.01% Chaps was added to the plate, incubated for 10 min at room temperature in the dark and then 10 uL of agonist was added at a final conc. equal to the agonist EC80. Calcium release was measured using the FLIPRtetra (MDS Analytical Technologies).

| IC50 | Structure (SMILES) |
| --- | --- |
| 3.98 nM | COc1cc2nc(-c3cccc(C(F)(F)F)c3)c(CN3CCC(N4CCCCC4)CC3)c(C(=O)N[C@H](c3ccccc3)C(F)(F)F)c2cc1S(=O)(=O)C(C)C [Example 21, 3-(1,4′-bipiperidin-1′-ylmethyl)-6-[(1-methylethyl)sulfonyl]-7-(methyloxy)-2-[3-(trifluoromethyl)phenyl]-N-[(1R)-2,2,2-trifluoro-1-phenylethyl]-4-quinolinecarboxamide] |
| 10 nM | CC1CN(Cc2c(-c3cccc(C(F)(F)F)c3)nc3ccc(S(=O)(=O)C(C)C)cc3c2C(=O)N[C@H](c2ccccc2)C(F)(F)F)CCC1N1CCOCC1 (mixture of isomers) [Example 38, 6-[(1-methylethyl)sulfonyl]-3-{[3-methyl-4-(4-morpholinyl)-1-piperidinyl]methyl}-2-[3-(trifluoromethyl)phenyl]-N-[(1R)-2,2,2-trifluoro-1-phenylethyl]-4-quinolinecarboxamide] |
| 3.16 nM | CS(=O)(=O)c1ccc2nc(-c3cccc(C(F)(F)F)c3)c(CN3CCC(N4CCCCC4)CC3)c(C(=O)N[C@H](c3ccccc3)C(F)(F)F)c2c1 [Example 1, 3-(1,4′-bipiperidin-1′-ylmethyl)-6-(methylsulfonyl)-2-[3-(trifluoromethyl)phenyl]-N-[(1R)-2,2,2-trifluoro-1-phenylethyl]-4-quinolinecarboxamide] |
| 6.31 nM | CCS(=O)(=O)c1cc2c(C(=O)N[C@H](c3ccccc3)C(F)(F)F)c(CN3CCC(N4CCCCC4)CC3)c(-c3cccc(C(F)(F)F)c3)nc2cc1OC [Example 3, 3-(1,4′-bipiperidin-1′-ylmethyl)-6-(ethylsulfonyl)-7-(methyloxy)-2-[3-(trifluoromethyl)phenyl]-N-[(1R)-2,2,2-trifluoro-1-phenylethyl]-4-quinolinecarboxamide] |
| 6.31 nM | COc1cc2nc(-c3cccc(C(F)(F)F)c3)c(CN3CCC(N4CCOCC4)CC3)c(C(=O)N[C@H](c3ccccc3)C(F)(F)F)c2cc1S(=O)(=O)C(C)C [Example 22, 6-[(1-methylethyl)sulfonyl]-7-(methyloxy)-3-{[4-(4-morpholinyl)-1-piperidinyl]methyl}-2-[3-(trifluoromethyl)phenyl]-N-[(1R)-2,2,2-trifluoro-1-phenylethyl]-4-quinolinecarboxamide] |
| 6.31 nM | CC(C)Oc1cc2nc(-c3cccc(C(F)(F)F)c3)c(CN3CCC(N4CCOCC4)CC3)c(C(=O)N[C@H](c3ccccc3)C(F)(F)F)c2cc1S(C)(=O)=O [Example 20, 7-[(1-methylethyl)oxy]-6-(methylsulfonyl)-3-{[4-(4-morpholinyl)-1-piperidinyl]methyl}-2-[3-(trifluoromethyl)phenyl]-N-[(1R)-2,2,2-trifluoro-1-phenylethyl]-4-quinolinecarboxamide] |
| 10 nM | CCOc1cc2nc(-c3cccc(C(F)(F)F)c3)c(CN3CCC(N4CCOCC4)CC3)c(C(=O)N[C@H](c3ccccc3)C(F)(F)F)c2cc1S(=O)(=O)CC [Example 26, 7-(ethyloxy)-6-(ethylsulfonyl)-3-{[4-(4-morpholinyl)-1-piperidinyl]methyl}-2-[3-(trifluoromethyl)phenyl]-N-[(1R)-2,2,2-trifluoro-1-phenylethyl]-4-quinolinecarboxamide] |
| 6.31 nM | CCOc1cc2nc(-c3cccc(C(F)(F)F)c3)c(CN3CCC(N4CCOCC4)CC3)c(C(=O)N[C@H](c3ccccc3)C(F)(F)F)c2cc1S(=O)(=O)C(C)C [Example 23, 7-(ethyloxy)-6-[(1-methylethyl)sulfonyl]-3-{[4-(4-morpholinyl)-1-piperidinyl]methyl}-2-[3-(trifluoromethyl)phenyl]-N-[(1R)-2,2,2-trifluoro-1-phenylethyl]-4-quinolinecarboxamide] |
